Laboratory results: patent US20220401414A1, “TREATMENT AND PREVENTION OF A NEURODEGENERATIVE DISORDER” (Inflazome Limited, priority 2019, published 2022)

Key:
[1] = Study A: blood-brain barrier penetration, striatal MetaQuant microdialysis in healthy mice after oral dosing; assay type: in vivo, C57B1/6 mice; conditions: for average peak levels in left and right striatal dialysate: MetaQuant dialysate, not corrected for recovery; for time of average peak levels after compound administration: striatal dialysate
Method: The present study was designed to determine the free concentration of the compound of formula (I) in the left and right striatum of freely-moving adult male mice after oral administration.
Adult male C57B1/6 mice (22-28 g; Envigo, the Netherlands) were used for the experiments. Following arrival, animals were housed in groups of 5 in polypropylene cages (40×50×20 cm) with wire mesh top in a temperature (22±2° C.) and humidity (55±15%) controlled environment on a 12 hour light cycle (07.00-19.00). Following surgery, animals were housed individually (cages 30×30×40 cm). Standard diet (SDS Diets, RM1 PL) and domestic quality mains water were available ad libitum.
Mice were anesthetized using isoflurane (2% and 500 mL/min O2). Before surgery, Finadyne (1 mg/kg, s.c.) was administered for analgesia during surgery and the post-surgical recovery period. A mixture of bupivacaine and epinephrine was used for local analgesia of the incision site.
The animals were placed in a stereotaxic frame (Kopf instruments, USA). MetaQuant microdialysis probes with a 3 mm exposed polyacrylonitrile membrane (MQ-PAN 33) were implanted bilaterally into the left and right striatum (coordinates for the tip of the probe: AP=+0.8 mm (to bregma), ML=+/−1.7 mm (to midline), DV=−4.0 mm (to dura) with an angle of 0° and the incisor bar set at 0.0 mm. All coordinates were based on “The mouse brain in stereotaxic coordinates” by Paxinos and Franklin (2008). The probes were attached to the skull with a stainless-steel screw and dental cement.
The monosodium salt of the compound of formula (I) was formulated in sterilized tap water at concentrations (with respect to the non-salt form) of 0.2 and 4 mg/mL for oral dosing at 5 mL/kg; 1 mg/kg and 20 mg/kg, respectively.
The MetaQuant microdialysis probes were connected with flexible PEEK tubing (Western Analytical Products Inc. USA; PK005-020) to a microperfusion pump (Harvard) and perfused with a slow flow of artificial CSF (perfusate), containing 147 mM NaCl, 3.0 mM KCl, 1.2 mM CaCl2, and 1.2 mM MgCl2, at a flow rate of 0.12 μL/min and a carrier flow of UP+0.02 M FA+0.04% ascorbic acid at o.8 μL/min. After a minimum of two hours of prestabilisation, microdialysis samples were collected in 60 minute intervals. Following collection of two baseline samples, the compound of formula (I) (1 or 20 mg/kg in sterilised tap water) was administered orally at t=0 minutes. Samples were collected into mini-vials (Microbiotech/se AB, Sweden; 4001029) using an automated fraction collector (UV 8301501, TSE, Univentor, Malta). At the end of the experiment, the animals were sacrificed.
Microdialysate samples from MetaQuant probes contained a nominal volume of 55.2 μL dialysate. Levels of the compound of formula (I) in MetaQuant microdialysate samples were quantified by LC-MS/MS.
The dialysate samples were mixed with acetonitrile and an aliquot of this mixture was injected into the LC system by an automated sample injector (SIL-20AD, Shimadzu, Japan). Calibrators and in-run QC samples were prepared in analytical dialysate of the same composition as the microdialysate samples. […]
Suitable in-run calibration curves were fitted using weighted (1/x) regression and the sample concentrations were determined using these calibration curves. […]

IL-1β = test: Study H: IL-1β ELISA in plasma of PFF-Synuclein mice; assay type: in vivo, C57BL6 mice; conditions: 0.3 mg/ml drinking water, 12 months after PFF-Synuclein injections
From the text: To determine the oral efficacy of the compound of formula (I) in a chronic progressive model of Parkinson's disease (PD), the preformed fibrils (PFF) mouse model, using a prophylactic and therapeutic dosing schedule.
8-week-old C57BL6 male mice (obtained from ARC, Perth, Australia) were housed under a 12-h light cycle in a SPF climate-controlled facility with food and water provided ad libitum for two weeks prior to study initiation. The compound of formula (I) (or water alone for control animals) was administrated to mice in drinking water at 0.3 mg/ml. Animals were separated into the groups described in Table 9, with ten animals initiated in each cohort. […]
Recombinant human a-synuclein was obtained from rPeptide Inc., and in vitro fibril generation was performed with a final concentration of 2 mg/ml in phosphate-buffered saline (PBS) by incubation at 37° C. with agitation in an orbital mixer (400 rpm) for 7 days with daily cycles of sonication used to break down fibrillar aggregates as outlined in previously published reports (see Luk et al., Science, 2012, vol. 338(6109), pp. 949-53; and Zhang et al., Methods Mol. Biol., 2019, vol. 1948, pp. 45-57, which are incorporated in their entirety herein by reference). The generation of fibrillar α-synuclein species was confirmed by transmission electron microscopy and Thioflavin T fluorescence prior to use. […]

average peak levels in left and right striatal dialysate ([1]; 1 mg/kg oral (monosodium salt in sterilised tap water)): 12 to 13 nM | time of average peak levels after compound administration ([1]; 1 mg/kg oral): 5 h | average peak levels in left and right striatal dialysate ([1]; 20 mg/kg oral (monosodium salt in sterilised tap water)): 201 to 243 nM | time of average peak levels after compound administration ([1]; 20 mg/kg oral): 6 h
Compound: CC(C)n1ccc(S(=O)(=O)NC(=O)Nc2c3c(cc4c2CCC4)CCC3)n1 [compound of formula (I)]
blood-brain barrier penetration ([1]; oral administration): cross the blood-brain barrier following oral administration | circulating IL-1β in plasma compared with the PFF-Synuclein group (IL-1β; prophylactic treatment): significant decrease in circulating IL-1β | circulating IL-1β in plasma compared with the PFF-Synuclein group (IL-1β; therapeutic treatment): significant decrease in circulating IL-1β
